Like-named read-outs stand apart in the source and are kept apart here.
Legend:
[1] = DPPH radical scavenging activity; conditions: n = 3
Experimental: This assay was determined using the procedure previously reported.

[2] = ABTS radical scavenging assay; conditions: n = 3
Experimental: This assay was assessed using the procedure previously described.

[3] = Ferric reducing antioxidant power (FRAP) assay
Experimental: The FRAP assay was measured using the procedure previously described.

[4] = molecular target: acetylcholinesterase (AChE) (Electrophorus electricus, UniProt O42275); experiment: biochemical
Chain of acetylcholinesterase (AChE) (O42275 24-633): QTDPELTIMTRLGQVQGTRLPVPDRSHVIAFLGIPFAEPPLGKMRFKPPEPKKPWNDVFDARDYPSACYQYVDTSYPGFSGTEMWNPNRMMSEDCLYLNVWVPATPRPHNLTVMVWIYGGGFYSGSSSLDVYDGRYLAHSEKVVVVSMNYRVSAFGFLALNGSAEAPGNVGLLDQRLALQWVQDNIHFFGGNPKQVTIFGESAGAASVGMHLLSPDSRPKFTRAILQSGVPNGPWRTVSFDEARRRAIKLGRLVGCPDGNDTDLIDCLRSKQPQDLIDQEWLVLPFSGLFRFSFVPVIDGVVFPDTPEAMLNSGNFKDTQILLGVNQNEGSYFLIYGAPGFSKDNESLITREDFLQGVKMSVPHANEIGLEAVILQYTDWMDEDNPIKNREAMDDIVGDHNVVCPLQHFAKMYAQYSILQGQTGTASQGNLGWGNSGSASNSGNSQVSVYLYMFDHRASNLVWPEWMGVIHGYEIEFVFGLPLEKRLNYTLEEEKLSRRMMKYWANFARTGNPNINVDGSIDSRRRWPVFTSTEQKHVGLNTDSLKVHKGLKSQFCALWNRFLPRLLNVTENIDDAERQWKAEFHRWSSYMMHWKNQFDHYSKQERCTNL

[5] = Superoxide radical scavenging assay; conditions: isolated compounds (Table 5); n = 3
Experimental: This assay was determined by the method previously described.

[6] = solvent extracts (Table 2), concentration causing 50% free radical scavenging
[7] = isolated compounds (Table 5), Trolox equivalents
[8] = isolated components (Table 6), read-out: IC50 AChE (converted)

Structure (SMILES) | SC50 DPPH ([1]; isolated compounds (Table 5)) [µg/mL] | SC50 DPPH [1, 6] [µg/mL] | SC50 ABTS ([2]; isolated compounds (Table 5)) [µg/mL] | SC50 ABTS [2, 6] [µg/mL] | FRAP, TE [3, 7] | FRAP, TE ([3]; solvent extracts (Table 2), millimolar of Trolox equivalents per gram of extract) [mM/g] | IC50 [4, 8] [µM] | IC50 ([4]; solvent extracts (Table 3), read-out: IC50 AChE (converted)) [µM] | SC50 Superoxide [5] [µg/mL] | IC50 [4] [µM]
Cc1cc(C(C)(C)C)c(O)c(C(C)(C)C)c1 [BHT, butylated hydroxytoluene, reference compound] | 36.99 ± 4.54 | 33.04 ± 2.12 | 17.36 ± 3.14 | 14.09 ± 0.24 | 3997.23 ± 144.35 mM/g | 4257.97 ± 145.90 |  |  |  | 
O=C(/C=C/c1ccc(O)c(O)c1)O[C@@H]1C[C@](O)(C(=O)O)C[C@@H](O)[C@H]1O [Chlorogenic acid, chlorogenic acid, reference compound] |  |  |  |  |  |  | 182 | 188 |  | 
Oc1cc(O)c2c(c1)O[C@H](c1ccc(O)c(O)c1)[C@@H](O)C2 [Compound 1, catechin] | 10.08 ± 3.09 |  | 2.23 ± 0.22 |  | 8729.33 ± 424.55 mM/g |  | 90.8 |  | 64.43 ± 7.73 | 
O=C(O)c1cc(O)c(O)c(O)c1 [Compound 2, gallic acid] | 2.60 ± 0.67 |  | 1.45 ± 0.14 |  | 28,512.82 ± 43.27 mM/g |  |  |  | 47.40 ± 3.01 | 244
O=c1c(O)c(-c2ccc(O)cc2)oc2cc(O)cc(O)c12 [Compound 3, kaempferol] | 12.48 ± 3.01 |  | 5.24 ± 0.45 |  | 7912.47 ± 220.08 mM/g |  |  |  |  | 
O=c1c(O)c(-c2ccc(O)c(O)c2)oc2cc(O)cc(O)c12 [Compound 4, quercetin] | 3.36 ± 0.58 |  | 3.15 ± 0.49 |  | 16,038.26 ± 86.89 mM/g |  |  |  | 31.89 ± 2.03 | 
C[C@@H]1CC[C@]2(C(=O)O)CC[C@]3(C)C(=CC[C@@H]4[C@@]5(C)C[C@@H](O)[C@@H](O)C(C)(C)[C@@H]5CC[C@]43C)[C@@H]2[C@]1(C)O [Compound 5, euscaphic acid] | >400 |  | >400 |  | 8.67 ± 3.93 mM/g |  | 23.8 |  | >400 | 
Oc1ccc(/C=C/c2cc(O)cc(O)c2)cc1 [Compound 6, resveratrol] |  |  |  |  |  |  |  |  |  | 354
Oc1cc(O)c2c(c1)O[C@H](c1ccc(O)c(O)c1)[C@H](O)C2 [Compound 7, epicatechin] | 2.78 ± 0.25 |  | 3.78 ± 0.03 |  | 13,122.77 ± 182.42 mM/g |  | 184 |  | 41.76 ± 4.20 | 
